For 16 compounds, IC50, t1/2 and Activity results are on record in ChEMBL document CHEMBL4219141, “Identification of an aminothiazole series of RORβ modulators” (Bioorg Med Chem Lett, 2018).

The source made the active and inactive calls. No cut-off for these calls is given here.

Data set [1] concerns the target T1, Nuclear receptor ROR-gamma (Homo sapiens, UniProt P51449).
T1 sequence (P51449 whole entry): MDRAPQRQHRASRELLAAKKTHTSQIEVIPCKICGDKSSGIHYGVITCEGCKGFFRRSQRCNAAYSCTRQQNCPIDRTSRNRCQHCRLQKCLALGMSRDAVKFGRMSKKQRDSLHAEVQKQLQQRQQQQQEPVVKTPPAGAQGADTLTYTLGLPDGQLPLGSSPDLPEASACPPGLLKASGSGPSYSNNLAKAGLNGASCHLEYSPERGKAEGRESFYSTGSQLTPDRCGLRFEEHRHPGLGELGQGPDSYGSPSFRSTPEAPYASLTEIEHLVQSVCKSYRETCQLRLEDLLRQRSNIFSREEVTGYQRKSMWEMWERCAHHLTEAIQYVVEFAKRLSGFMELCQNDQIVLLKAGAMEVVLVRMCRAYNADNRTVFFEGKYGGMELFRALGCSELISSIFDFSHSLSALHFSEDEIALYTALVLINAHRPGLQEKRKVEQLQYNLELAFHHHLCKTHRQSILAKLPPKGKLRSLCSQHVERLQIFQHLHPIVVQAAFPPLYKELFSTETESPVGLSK

Data set [2] can be described thus: Half life in mouse liver microsomes at 1 uM in presence of NADPH by LC-MS/MS analysis. Type of data set: ADME, microsome. On the technique in general: Liver microsomes are vesicles of endoplasmic reticulum, rich in cytochrome P450 enzymes.
For data set [3], the target named is T2, Nuclear receptor ROR-alpha (Homo sapiens) (UniProt P35398).
T2 sequence (whole entry): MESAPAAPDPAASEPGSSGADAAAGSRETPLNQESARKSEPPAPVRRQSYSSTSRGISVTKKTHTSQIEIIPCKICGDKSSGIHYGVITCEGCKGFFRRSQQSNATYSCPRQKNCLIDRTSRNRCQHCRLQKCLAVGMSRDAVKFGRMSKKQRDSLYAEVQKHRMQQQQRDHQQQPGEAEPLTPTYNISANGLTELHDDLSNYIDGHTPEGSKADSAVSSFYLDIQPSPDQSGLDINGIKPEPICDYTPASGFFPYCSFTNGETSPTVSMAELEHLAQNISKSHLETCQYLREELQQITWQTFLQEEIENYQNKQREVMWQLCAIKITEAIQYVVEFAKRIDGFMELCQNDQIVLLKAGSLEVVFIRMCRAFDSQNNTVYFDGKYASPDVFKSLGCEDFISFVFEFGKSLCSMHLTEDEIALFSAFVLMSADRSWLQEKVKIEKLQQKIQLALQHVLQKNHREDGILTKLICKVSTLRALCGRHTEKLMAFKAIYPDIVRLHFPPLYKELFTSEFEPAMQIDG
As to the kind of experiment: Inverse agonist activity at GAL4-DNA binding domain-fused human RORalpha ligand binding domain expressed in HEK293T cells incubated for 20 hrs by luciferase reporter gene assay. Type of data set: cell-based. (In a reporter assay the amount or activity of a reporter protein is the signal.)

Another data set has as its system HEK-293T. As to the kind of experiment: Toxicity in HEK293T cells at 10 uM. Type of data set: cell-based. The settings on record: human.

What is called IC50 is the concentration needed to halve the response being measured. A lower IC50 goes with greater potency.

As for `Nc1nc(-c2cccc(C(F)(F)F)c2)c(C(=O)c2c(F)cccc2C(F)(F)F)s1`, in data set [1], the 50% inhibitory concentration (IC50) is above 40 µM.
Consider `Nc1nc(-c2cccc(C(F)(F)F)c2)c(C(=O)c2c(F)cccc2Cl)s1`, for which the t1/2 in data set [2] is on record as 2.7 min. In addition, the half-inhibitory concentration (IC50) in data set [1] is above 40 µM.
In data set [1], `Nc1nc(-c2cccc(C(F)(F)F)c2)c(C(=O)c2ccccc2C(F)(F)F)s1` registered an IC50 above 40 µM.
Regarding `Nc1nc(-c2cccc(Cl)c2)c(C(=O)c2ccccc2Cl)s1`, in data set [3], the outcome was inactive. The t1/2 in data set [2] is given as 1.9 min. In the data set with HEK-293T, the Activity entry is recorded as “Non-Toxic”.
`Nc1nc(-c2cc(C(F)(F)F)cc(C(F)(F)F)c2)c(C(=O)c2ccccc2Cl)s1`: the t1/2 in data set [2] is recorded as 7.4 min.
Consider `Nc1nc(-c2cc(Br)cc(C(F)(F)F)c2)c(C(=O)c2ccccc2Cl)s1`, for which, in data set [3], the result was inactive. Moreover, the t1/2 in data set [2] came out at 5.2 min. Besides, in the data set with HEK-293T, the Activity entry is recorded as “Non-Toxic”. Besides, the half-maximal inhibitory concentration (IC50) in data set [1] was above 40 µM.
As for `COc1ccccc1C(=O)c1sc(N)nc1-c1cc(Br)cc(C(F)(F)F)c1`, in data set [3], the result was inactive. The t1/2 in data set [2] is recorded as 2.3 min. Further, the Activity result in the data set on HEK-293T is given as “Non-Toxic”.
In turn, `COc1ccccc1C(=O)c1sc(N)nc1-c1cccc(C(F)(F)F)c1` gave a 50% inhibitory concentration (IC50) in data set [1] above 40 µM.
Turning to `COc1ccccc1C(=O)c1sc(N)nc1-c1cc(C(F)(F)F)cc(C(F)(F)F)c1`, in data set [2], the t1/2 is 5.2 min.
Consider `CCS(=O)(=O)c1ccc(CC(=O)Nc2nc(-c3ccccc3Cl)c(C(=O)c3ccccc3Cl)s2)cc1`, for which the t1/2 in data set [2] came to 34 min. Also, the Activity result in the data set on HEK-293T is “Non-Toxic”.
Turning to `Nc1nc(-c2ccc(Br)c(C(F)(F)F)c2)c(C(=O)c2ccccc2Cl)s1`, the t1/2 in data set [2] amounted to 2.5 min.
On the same count and under the same terms, the same measure for `Nc1nc(-c2cccc(C(F)(F)F)c2)c(C(=O)c2ccccc2Cl)s1`: 2.9 min.
In data set [1], `Nc1nc(-c2cccc(C(F)(F)F)c2)c(C(=O)c2ccccc2Br)s1` displayed a 50% inhibitory concentration (IC50) above 40 µM.
In the case of `Nc1nc(-c2ccc(Cl)c(C(F)(F)F)c2)c(C(=O)c2ccccc2Cl)s1`, the IC50 in data set [1] was above 40 µM.
In the case of `COc1ccccc1C(=O)c1sc(N)nc1-c1ccc(Cl)c(C(F)(F)F)c1`, in data set [3], the result was inactive. Besides, the Activity entry with HEK-293T was “Non-Toxic”. This compound also came in with a concentration for half-maximal inhibition (IC50) in data set [1] above 40 µM.
Take `Nc1nc(-c2cc(Cl)cc(C(F)(F)F)c2)c(C(=O)c2ccccc2Cl)s1`: the t1/2 in data set [2] stood at 6.1 min.
